From US20230126310A1 (priority 2020, published 2023)

Tested on: SARS-CoV-2
Conditions: for % Inh. (% Inhibition of SARS-CoV-2): 10 µM

| Compound | % Inh. (% Inhibition of SARS-CoV-2) | further results |
| --- | --- | --- |
| COc1ccc2nc3cc(Cl)ccc3c(Nc3cc(CN4CCCC4)c(O)c(CN4CCCC4)c3)c2n1.O=P(O)(O)O.O=P(O)(O)O.O=P(O)(O)O.O=P(O)(O)O [PYRONARIDINE TETRAPHOSPHATE] | 80.6% |  |
| CCc1nc2ccc(Cl)cn2c1C(=O)NCc1ccc(N2CCC(c3ccc(OC(F)(F)F)cc3)CC2)cc1 [Q-203] | 96.9% |  |
| Nc1ccc2ncnc(NCCc3ccc(Oc4ccccc4)cc3)c2c1 [QNZ (EVP4593)] | 95.8% |  |
| Cn1c(Nc2ccc(C(F)(F)F)cc2)nc2cc(Oc3ccnc(-c4ncc(C(F)(F)F)[nH]4)c3)ccc21 [RAF265 (CHIR-265)] | 93.2% |  |
| CCCCCC(O)c1cccc(OCc2ccc3ccccc3n2)c1 [REV-5901/L-655,238] | 113.5% |  |
| CCOc1cc(C(C)(C)C)ccc1C1=N[C@@](C)(c2ccc(Cl)cc2)[C@@](C)(c2ccc(Cl)cc2)N1C(=O)N1CCN(CCCS(C)(=O)=O)CC1 [RG7112 (RO5045337)] | 88.5% |  |
| COCCN1CCN(Cc2ccc(-c3n[nH]c4c3C(=O)c3c(NC(=O)NN5CCOCC5)cccc3-4)cc2)CC1 [RGB-286638 (free base)] | 70.2% |  |
| O=C(NCCCCCCNC(=O)ON=C1CCCCC1)ON=C1CCCCC1 [RHC-80267] | 63.9% |  |
| CNS(=O)(=O)Nc1nccc(Cc2c(C)c3ccc(Oc4ncccn4)cc3oc2=O)c1F [RO5126766 (CH5126766)] | 102.6% | IC50: 5.36 µM; pIC50: 5.27 |
| CC(C)(Cc1c[nH]c2ccc(Cl)cc12)NCCOc1ccccc1OCC1CC1 [RS-17053] | 103.3% |  |
| O=C1Nc2ccccc2C2(CCN(CCc3ccc(C(F)(F)F)cc3)CC2)O1 [RS-102895] | 82.1% |  |
| CCOc1cc(C(=O)Nc2ccc(Cl)c(-c3nc4ccccc4[nH]3)c2)cc(OCC)c1OCC [SANT-2] | 84.1% |  |
| CN1C/C=C/CCOc2cccc(c2)-c2ccnc(n2)Nc2cccc(c2)C1 [SB1317] | 56.5% |  |
| O=C(Nc1ccccc1Br)N[C@@H]1CCN(c2ccc(C(F)(F)F)cn2)C1 [SB705498] | 64.6% |  |
| COc1ccc(NC(=O)c2ccc(-c3ccc(-c4noc(C)n4)cc3C)cc2)cc1OCCN(C)C [SB-216641] | 57.6% |  |
| COc1cc(Br)c(S(=O)(=O)Nc2ccc(Cl)c(O[C@@H]3CCN(C)C3)c2)cc1OC [SB-657510] | 101.1% |  |
| Cc1ccc(C(=O)N(CCCN)[C@@H](c2oc3cc(Cl)ccc3c(=O)c2Cc2ccccc2)C(C)C)cc1 [SB-743921] | 78.9% |  |
| O=C(NNc1nc2cc(F)ccc2n2cccc12)c1cnccn1 [SC144] | 108.7% |  |
| O=S(=O)(NCCCCCCc1ccccc1)c1cccc2c(Cl)cccc12 [SC-9] | 83.4% |  |
| NC(CO)(CO)CO.Nc1nccc(Oc2ccc(NC(=O)c3cn(COP(=O)(O)O)cc(-c4ccc(F)cc4)c3=O)cc2F)c1Cl [SCR-1481B1] | 89.3% |  |
| Fc1ccc(Cl)cc1-c1nc(Nc2ccncc2)c2nccnc2n1 [SD-208] | 55.1% |  |
| COc1cc2c(cc1OC)CN(C(=O)/C=C/c1c(-c3ccccc3)n(C)c3ncccc13)CC2 [SIS3] | 99.3% |  |
| O=C1NC(=O)/C(=C/c2cccc(C(F)(F)F)c2)S1 [SMI-4a] | 89.9% |  |
| CCc1c2c(nc3ccc(O)cc13)-c1cc3c(c(=O)n1C2)COC(=O)[C@]3(O)CC [SN-38] | 79.2% |  |
| Cc1ccc(NC(=O)C(C)C)cc1C1CCN(Cc2ccc(Oc3ccc(F)c(F)c3)cc2)CC1 [SNAP-94847] | 91.4% |  |
| COc1ccc2[nH]c3c(-c4cccc5ccccc45)nccc3c2c1 [SP-141] | 68.6% |  |

| Compound | % Inh. (% Inhibition of SARS-CoV-2) | further results |
| --- | --- | --- |
| COc1ccc(CCN(C)CCCOc2ccc(S(=O)(=O)c3c(C(C)C)c4ccccc4n3C)cc2)cc1OC.O=C(O)C(=O)O [SR-33805 oxalate] | 67.7% |  |
| CCc1ccccc1OC[C@@H](O)CN[C@H]1CCCc2ccccc21 [SR-59230A] | 57.3% |  |
| CN(C)C(=O)C(=O)c1cn(C)c2cc(Cl)c(C(=O)N3CCC(Cc4ccc(F)cc4)CC3)cc12 [SX-011] | 94.1% |  |
| C[C@]12CC[C@H]3[C@@H](CC[C@]4(O)C[C@@H](O)CC[C@]34C=O)[C@@]1(O)CC[C@@H]2C1=CC(=O)OC1 [Strophantidin] | 67.1% |  |
| CN(C)CCNc1nc2cc(O)ccc2c2c1C(=O)c1ccccc1-2.Cl.Cl [TAS-103 (dihydrochloride)] | 92.6% |  |
| OC12C3C4CC5C6C4C1C6C(C53)N2CCc1cccc(F)c1 (stereo not shown) [TC1] | 53.2% |  |
| CC1CCN(C(c2ccc(F)cc2)c2ccc(C(C)C(=O)O)cc2-c2ccc(C(F)(F)F)cc2)CC1 (stereo not shown) [TC-E-5006] | 94.1% |  |
| CC(C)(C)Nc1nc(Nc2ccc(C(N)=O)cc2)cc(N)c1C#N [TC-Mps1-12] | 65.3% |  |
| COc1ncc2cc(C(=O)Nc3cc(C(=O)NCc4cccc(Cl)c4)ccc3Cl)c(=O)[nH]c2n1 [TC-S-7004] | 77.3% |  |
| N#Cc1cnc2cnc(NCc3cccnc3)cc2c1Nc1ccc(F)c(Cl)c1 [TC-S-7006] | 100.7% |  |
| COc1cc2c(cc1OC)CN(C(=O)[C@@H](NCc1ccncc1)C(C)(C)C)CC2 [TCS-OX2-29] | 52.7% |  |
| CCN1/C(=C/C(C)=O)Sc2ccc(OC)cc21 [TG003] | 55.4% |  |
| CC(C)(O)c1ccn2c(-c3ccc(F)c(-c4ccc(F)cc4C#N)c3)cnc2c1F [TP-003] | 100.8% |  |
| NC(=O)Nc1sc(-c2ccc(F)cc2)cc1C(N)=O [TPCA-1] | 103.5% |  |
| O=C(CNC(=O)c1cccc(C(F)(F)F)c1)N[C@@H]1CCN(Cc2ccc(Cl)cc2)C1 [Teijin-compound-1] | 85.7% |  |
| CCC(=O)N1CCN(c2ccc(-n3c(=O)ccc4cnc5ccc(-c6cnc7ccccc7c6)cc5c43)cc2C(F)(F)F)CC1 [Torin 1] | 75.3% |  |
| c1ccc(C(NCc2cccnc2)(c2ccccc2)c2ccccc2)cc1 [UCL-2077] | 70.7% |  |
| c1cncc(CN2CCC(n3ncc4c(N5CCOCC5)nc(-c5ccc6[nH]ccc6c5)nc43)CC2)c1 [WAY-600] | 99.1% |  |
| CC(C)(C)c1ccc(-c2nc3c(N4CCN(Cc5ccc6nccnc6c5)CC4)cccc3[nH]2)cc1 [WAY-207024] | 77.1% |  |
| COC(=O)Nc1ccc(-c2nc(N3CCOCC3)c3cnn(C4CCN(C(=O)OC)CC4)c3n2)cc1 [WYE-354] | 89.9% |  |
| COC(=O)Nc1ccc(-c2nc(N3CCOCC3)c3cnn(C4CCN(Cc5cccnc5)CC4)c3n2)cc1 [WYE-687] | 105.8% |  |
| CNC(=O)Nc1ccc(-c2nc(N3CC4CCC(C3)O4)c3cnn(C4CCC5(CC4)OCCO5)c3n2)cc1 [WYE-125132] | 99.7% |  |
| Cc1cc(-c2ccc(CC(=O)Nc3ccc(-c4cccnc4)cc3)cc2)ccn1 [Wnt-C59 (C59)] | 82.3% |  |
| Nc1cccc(CNC(=O)c2ccc(Oc3ccc(OCc4cccc(F)c4)cc3)nc2)c1 [YM-244769] | 60.4% |  |
| COc1cc2ncnc(Nc3ccc(Cl)cc3F)c2cc1OC [ZM-306416] | 77.9% |  |
| CC(=O)[C@@]12O[C@](C)(c3ccccc3)O[C@@H]1C[C@H]1[C@@H]3CCC4=CC(=O)CC[C@]4(C)[C@H]3CC[C@@]12C [algestone-acetophenide] | 96.0% |  |

| Compound | % Inh. (% Inhibition of SARS-CoV-2) | further results |
| --- | --- | --- |
| COc1ccc(C[C@H]2NC[C@H](O)[C@H]2OC(C)=O)cc1 [anisomycin] | 88.1% |  |
| NC(=O)N/N=C/c1ccc(Oc2ccc(F)cc2)cc1 [co-102862] | 55.2% |  |
| C=C[C@@]1(C)CC(=O)[C@]2(O)[C@@]3(C)[C@@H](O)CCC(C)(C)[C@@H]3[C@H](OC(=O)CCN(C)C)[C@H](OC(C)=O)[C@@]2(C)O1 [colforsin-daproate] | 80.3% |  |
| Cc1cc(/C=C2\SC(=O)N(c3ccccc3)C2=O)c(C)n1-c1cccnc1 [iCRT-14] | 82.5% |  |
| CC(C)c1ccc2c(c1)CC[C@H]1[C@](C)(CN)CCC[C@]21C [lylamine] | 76.4% |  |
| Cc1cc(-c2nc3cc(F)ccc3s2)ccc1NC(=O)[C@@H](N)CCCCN.Cl.Cl [phortress] | 67.1% |  |
| Cc1ccnc(NC(=O)C(C)c2cccc(C(=O)c3ccccc3)c2)c1 (stereo not shown) [piketoprofen] | 72.4% |  |
| CC[N+](C)(CC)CCC[n+]1c(-c2ccccc2)c2cc(N)ccc2c2ccc(N)cc21.[I-].[I-] [propidium-iodide] | 69.7% |  |
| N#Cc1ccc(-c2csc(NN=C3CCCC3)n2)cc1 [remodelin] | 99.4% |  |
| O=C1OC2(c3cc(I)c(O)c(I)c3Oc3c2cc(I)c(O)c3I)c2c(Cl)c(Cl)c(Cl)c(Cl)c21 [rose-bengal-lactone] | 57.6% |  |
| Fc1ccc(CNc2ncnc3ccc(F)cc23)cc1 [spautin-1] | 92.1% |  |
| c1cc2c(cc1C1CCCCC1)c1c3n2CCNC3CCC1 (stereo not shown) [tetrindole] | 75.2% |  |
| CCn1c(=O)n(C2=C(CO)CN(CC3CCCCCCC3)CC2)c2ccccc21 [trap-101] | 77.9% |  |
| Afatinib (dimaleate) | 60.2% |  |
| Chlorophyllin (sodium copper salt) | 66.7% |  |
| Exatecan Mesylate | 70.1% |  |
| GSK9027 | 64.1% |  |
| I-BET151 (GSK1210151A) | 56.0% |  |
| Lasofoxifene (Tartrate) | 54.3% |  |
| MONENSIN SODIUM |  | % Inh (% inhibition of virus infection) (comparative experiments, Examples 1 and 2): 103.2% |
| NI-57 | 78.3% |  |
| Nizofenone fumarate | 52.4% |  |
| Rupatadine Fumarate | 72.1% |  |
| SNS-314 methanesulfonate | 81.4% |  |
| Skepinone-L | 86.1% |  |
